13 compounds from US8404673B2, “Carbocyclic GlyT1 receptor antagonists” (Hoffmann-La Roche Inc., priority 2009, dated 2013) can be followed below.

The target of the test is T1, mGlyT-1b (Mus musculus, UniProt P28571).
T1 construct: host or cells: Flp-in-CHO
T1 sequence (P28571 1-651 isoform P28571-2): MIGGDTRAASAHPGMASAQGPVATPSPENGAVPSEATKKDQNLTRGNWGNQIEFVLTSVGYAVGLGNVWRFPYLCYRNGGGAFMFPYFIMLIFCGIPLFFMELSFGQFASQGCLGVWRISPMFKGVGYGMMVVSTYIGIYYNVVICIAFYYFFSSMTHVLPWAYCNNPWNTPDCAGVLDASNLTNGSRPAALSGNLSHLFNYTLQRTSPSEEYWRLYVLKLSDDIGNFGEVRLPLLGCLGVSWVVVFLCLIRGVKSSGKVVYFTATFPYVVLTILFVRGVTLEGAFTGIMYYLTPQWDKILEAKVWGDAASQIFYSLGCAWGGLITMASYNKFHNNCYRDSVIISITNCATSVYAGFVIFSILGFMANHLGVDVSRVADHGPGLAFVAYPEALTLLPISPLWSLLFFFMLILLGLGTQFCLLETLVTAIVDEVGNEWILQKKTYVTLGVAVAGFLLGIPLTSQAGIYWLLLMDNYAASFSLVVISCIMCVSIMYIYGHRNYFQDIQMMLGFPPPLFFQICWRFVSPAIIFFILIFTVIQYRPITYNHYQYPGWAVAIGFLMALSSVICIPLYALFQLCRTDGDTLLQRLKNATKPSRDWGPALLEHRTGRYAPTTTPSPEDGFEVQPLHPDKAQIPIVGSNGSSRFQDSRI
Briefly: Glycine Uptake Inhibition Assay (mGlyT-1b). The format is cell-based.

Like-named read-outs stand apart in the source and are kept apart here.

Consider `CSc1cc(C(F)(F)F)cc(C(F)(F)F)c1C(=O)N[C@H]1CCC[C@H]1N1CCCC1` (racemic) [Example 104, cis-2-Methylsulfanyl-N-(2-pyrrolidin-1-yl-cyclopentyl)-4,6-bis-trifluoromethyl-benzamide], for which the concentration for half-maximal inhibition (IC50) (usually the midpoint of a concentration-inhibition curve) (IC50 data) amounted to 18.9 nM.

On to `O=C(N[C@@H]1CCC[C@@H]1N1CCCC1)c1c(F)cc(C(F)(F)F)cc1C(F)(F)F` (single isomer, unassigned) [Example 126, (−)-cis-2-Fluoro-N-(2-pyrrolidin-1-yl-cyclopentyl)-4,6-bis-trifluoromethyl-benzamide], for which the IC50 (IC50 data) was found to be 74 nM.

As to `CSc1cc(C(F)(F)F)cc(C(F)(F)F)c1C(=O)N[C@@H]1CCC[C@@H]1N1CCCC1` (single isomer, unassigned) [Example 118, (+)-cis-2-Methylsulfanyl-N-(2-pyrrolidin-1-yl-cyclopentyl)-4,6-bis-trifluoromethyl-benzamide], the IC50 (IC50 data) worked out at 60 nM.

Take `CCc1cc(C(F)(F)F)cc(C(F)(F)F)c1C(=O)N[C@H]1CCC[C@H]1N1CCCC1` (relative stereo) [Example 137, 2-Ethyl-N-((cis)-2-pyrrolidin-1-yl-cyclopentyl)-4,6-bis-trifluoromethyl-benzamide]: the IC50 (IC50 data) is 46.2 nM.

As for `CCc1cc(C(F)(F)F)ccc1C(=O)N[C@H]1CCC[C@H]1NC1CCCC1` (racemic) [Example 89, cis-N-(2-Cyclopentylamino-cyclopentyl)-2-ethyl-4-trifluoromethyl-benzamide], the IC50 (read-out: IC50 data) was found to be 79.4 nM.

Regarding `O=C(N[C@H]1CCC[C@H]1N1CCCC1)c1ccc(C(F)(F)F)cc1C1CC1` (racemic) [Example 91, 2-Cyclopropyl-cis-N-(2-pyrrolidin-1-yl-cyclopentyl)-4-trifluoromethyl-benzamide], the IC50 (IC50 data) was determined as 45.3 nM.

On to `CCc1cccc(C2CC2)c1C(=O)N[C@@H]1CCC[C@@H]1N1CCCC1` (single isomer, unassigned) [Example 120, (−)-cis-2-Cyclopropyl-6-ethyl-N-(2-pyrrolidin-1-yl-cyclopentyl)-benzamide], for which the IC50 (IC50 data) stood at 55.2 nM.

Consider `CCc1cc(C(F)(F)F)ccc1C(=O)N[C@H]1CCC[C@H]1NC1CCCC1` (single isomer, unassigned) [Example 92, (+)-N-(2-Cyclopentylamino-cyclopentyl)-2-ethyl-4-trifluoromethyl-benzamide], for which, where the note is “read-out: IC50 data”, the IC50 came to 95.4 nM.

Regarding `O=C(N[C@H]1CCC[C@H]1N1CCCC1)c1c(C2CC2)cc(C(F)(F)F)cc1C(F)(F)F` (relative stereo) [Example 130, 2-Cyclopropyl-N-((cis)-2-pyrrolidin-1-yl-cyclopentyl)-4,6-bis-trifluoromethyl-benzamide], the half-inhibitory concentration (IC50) (IC50 data) came to 35.4 nM.

For the setting “IC50 data”, `CCc1cc(C(F)(F)F)cc(OC)c1C(=O)N[C@H]1CCC[C@H]1N1CCCC1` (relative stereo) [Example 140, 2-Ethyl-6-methoxy-N-((cis)-2-pyrrolidin-1-yl-cyclopentyl)-4-trifluoromethyl-benzamide] showed an IC50 of 55.4 nM.

Regarding `COc1cc(C(F)(F)F)cc(SC)c1C(=O)N[C@H]1CCC[C@H]1NC1CCCC1` (single isomer, unassigned) [Example 68, (−)-N-(2-Cyclopentylamino-cyclopentyl)-2-methoxy-6-methylsulfanyl-4-trifluoromethyl-benzamide], the IC50 (read-out: IC50 data) was 19.4 nM.

Under “IC50 data”, `COc1cc(C(F)(F)F)cc(SC)c1C(=O)N[C@@H]1CCC[C@@H]1N1CCCC1` (single isomer, unassigned) [Example 59, (+)-2-Methoxy-6-methylsulfanyl-N-(2-pyrrolidin-1-yl-cyclopentyl)-4-trifluoromethyl-benzamide] registered an IC50 of 61.1 nM.

The compound `COc1cc(C(F)(F)F)cc(Br)c1C(=O)NC1CCCC1N1CCCC1` (single isomer, unassigned; (+)) [Example 115, (+)-2-Bromo-6-methoxy-N-cis-(2-pyrrolidin-1-yl-cyclopentyl)-4-trifluoromethyl-benzamide] came in with an IC50 (IC50 data) of 71.4 nM.
